# Laboratory results: patent US6803357B1, “Method of regulating glucose metabolism, and reagents related thereto” (New England Medical Center Hospitals, Inc., priority 1999, dated 2004)
# Experiments:
# DP-IV = test: inhibition of / affinity for DP-IV; format: biochemical
# Method: As an illustrative embodiment, the ability of a test agent to inhibit DPIV can be assessed using a calorimetric or fluorometric substrate, such as Ala-Pro-paranitroanilide. […] Moreover, DPIV can be purified, and is accordingly readily amenable for use in such high throughput formats as multi-well plates.
# An illustrative reaction mixture includes […] (pH7.8), 10 μM Ala-Pro-paranitroanilide, 6 milliunits of DPIV, and 2% (v/v) dimethylformamide in a total volume of 1.0 mL. The reaction is initiated by addition of enzyme, and formation of reaction product (paranitroanilide) in the presence and absence of a test compound can be detected photometrically, e.g., at 410 nm.
# blood glucose levels = test: oral glucose tolerance test (oral glucose challenge) in mice; format: in vivo; settings: for glucose levels in blood / glucose control after a single injection: acute, single injection before oral glucose tolerance test; for blood sugar levels / glycemic excursion to oral glucose challenge, chronic treatment: injected twice daily for four days, then oral glucose challenge; for response to a sub-therapeutic dose of GLP-1: single injection, 8 μg GLP-1 five minutes prior to glucose
# Method: The first two experiments are “acute” experiments wherein the mice were injected with a single dose of Pro-boro-pro. In the first set of experiments mice were injected with 150 μg of Pro-boro-pro (PBP-1) and then subjected to an oral glucose tolerance test within an hour. […] In a second set of experiments mice were injected with Pro-boro-pro (PBP-2) one hour prior to an oral glucose challenge test. FIG. 3 presents the results of these experiments. Each set of experiments was also performed using saline as a control.
# The third set of experiments were “chronic” experiments, wherein the mice were injected twice daily with Pro-boro-pro for four days, followed by an oral glucose challenge.
compound,measurement,setting,value
L-Ala-L-boroPro-pinacol [early fraction],extent of DP-IV inhibition compared with later fractions,"DP-IV; at equal concentrations, silica gel fractions of Ala-boroPro-pinacol",inhibits DP-IV to a greater extent than later fractions
O=C(C1CCCN1)N1CCCC1B(O)O (centres unmarked) [Pro-boro-pro],"fasting blood sugars, chronic treatment",blood glucose levels; chronic (>5 days) treatment alone,lowers
same,glucose levels in blood / glucose control after a single injection,blood glucose levels; mice,alone sufficient to improve glucose control
same,glucose levels in blood / glucose control after a single injection,"blood glucose levels; mice, listed as PBP-1",improves glucose levels in blood
same,glucose levels in blood / glucose control after a single injection,"blood glucose levels; mice, listed as PBP-2",improves glucose levels in blood
same,"blood sugar levels / glycemic excursion to oral glucose challenge, chronic treatment",blood glucose levels; mice,lowers
same,"blood sugar levels / glycemic excursion to oral glucose challenge, chronic treatment","blood glucose levels; mice, listed as PBP-3",lowering of the blood sugar levels
same,"blood sugar, oral glucose challenge","blood glucose levels; mice, overall statement on the experiments",clearly lowers blood sugar
same,response to a sub-therapeutic dose of GLP-1,blood glucose levels; mice,potentiate the response
same,response to a sub-therapeutic dose of GLP-1,"blood glucose levels; mice, listed as PBP-1",potentiates the response
"CC(NC(=O)OC(C)(C)C)C(=O)N1CCCC1B(O)O (stereo not drawn) [Boc-blocked Ala-boroPro, Boc-Ala-boroPro]",affinity for DP-IV,DP-IV,no affinity
